Data published in article PMC6973020, “Quinoline‐Conjugated Ruthenacarboranes: Toward Hybrid Drugs with a Dual Mode of Action” (Chemmedchem, 2019).

Legend:
[1] = system: LN229 human glioblastoma; assay: Crystal violet (CV) cell viability assay, LN229; format: cell-based; conditions: read-out: IC50 LN229
Source text: (§1) Thus, care must be taken when comparing their biological activities with those of our previous studies, even with the same cell line, because the covalent vs. non‐covalent combination of drugs might imply different mechanisms of action in the cell.44 Here, we studied the in vitro activity of ruthenacarborane 3, i. e. free acid, and its 8‐hydroxyquinolyl (4) and 4‐{(7‐chloroquinolin‐4‐yl)oxy}butanol‐1‐yl (5) esters, against a panel of cancer cell lines (B16 mouse melanoma, A375 human skin melanoma, MCF‐7 human breast adenocarcinoma, LN229 human glioblastoma, U251 human glioma). Human fibroblast cell line MRC‐5, murine microglial cell line BV‐2 as well as peritoneal exudate cells (Mph), were chosen as models for non‐malignant cells. […] On the other side, we wanted to assess the reproducibility of the viability data, under either controlled (with BSA) or uncontrolled (without BSA) conditions, in two sets of independent assays. […] Cells were exposed to 3–5 for 72 h, after which cell viability was determined via 3‐(4,5‐dimethylthiazol‐2‐yl)‐2,5‐diphenyltetrazolium bromide (MTT) and crystal violet (CV) assays, in parallel (Table 2). Cisplatin was also tested as reference.
(§2) Preparation of drug solutions. […] Stock solution of cisplatin was prepared in DMF (10 mM) immediately before use. A stock solution of BSA in PBS was prepared at 1.28 mM concentration, and stored at 4 °C in the dark. […] Alternatively, 3 or 4 (DMSO stock solution) were added to the BSA solution in PBS, always with a 10 : 1 molar ratio of BSA to ruthenacarborane. The BSA−ruthenacarborane solutions were incubated 0.5–1 h at room temperature, then diluted with cell culture medium to the desired final concentrations. Final concentrations of 3 and 4 were the same as for the BSA‐free formulation. Final DMSO was 0.02–0.5 vol %.
(§3) Colorimetric assays for cellular viability. […] For counting the number of attached (viable) cells, cells were fixed with 4 % (w/v) paraformaldehyde for 10 min at room temperature, and subsequently stained for 15 min with […] crystal violet (CV) solution. Cells were then washed with tap water, dried in air, and the CV dye was dissolved in 33 % (w/v) acetic acid solution. For the detection of mitochondrial respiration, cells were cultivated in MTT staining solution (0.5 mg mL^−1) for approximately 1 h. The dye was then discarded, and the formed formazan (purple) was dissolved in DMSO. The absorbance was measured with an automated microplate reader at λmax 540 nm, with the reference λmax 670 nm. Untreated cells or cells treated only with BSA (control) were also measured, as reference for BSA‐free and BSA‐containing drug formulations, respectively. For determination of the role of autophagy specific inhibitors, CQ or 3‐MA, were applied at a concentration of 20 μM and 0.5 mM, respectively, and the cells were stained with CV dye. Cell viability is expressed as percentage (%) relative to control (untreated cultures).58 Experiments were run in three independent replicates. […] Non‐linear regression analyses of the obtained results was done using GraphPad Prism software to calculate IC50 values.
(§4) mouse microglial cell line BV‐2 was a kind gift from Dr. Irena Lavrnja, Institute for Biological Research
(§5) “Siniša Stanković” (University of Belgrade).

[2] = system: U251 human glioma; assay: Crystal violet (CV) cell viability assay, U251; format: cell-based; conditions: read-out: IC50 U251
Source text: as §1, §2, §3, §4, §5

[3] = system: A375 human skin melanoma; assay: Crystal violet (CV) cell viability assay, A375; format: cell-based; conditions: 72 h
Source text: as §1, §2
(§6) Colorimetric assays for cellular viability. […] For counting the number of attached (viable) cells, cells were fixed with 4 % (w/v) paraformaldehyde for 10 min at room temperature, and subsequently stained for 15 min with […] crystal violet (CV) solution. Cells were then washed with tap water, dried in air, and the CV dye was dissolved in 33 % (w/v) acetic acid solution. For the detection of mitochondrial respiration, cells were cultivated in MTT staining solution (0.5 mg mL^−1) for approximately 1 h. The dye was then discarded, and the formed formazan (purple) was dissolved in DMSO. The absorbance was measured with an automated microplate reader at λmax 540 nm, with the reference λmax 670 nm. Untreated cells or cells treated only with BSA (control) were also measured, as reference for BSA‐free and BSA‐containing drug formulations, respectively. […] Cell viability is expressed as percentage (%) relative to control (untreated cultures).58 Experiments were run in three independent replicates. […]

[4] = system: B16 mouse melanoma; assay: Crystal violet (CV) cell viability assay, B16; format: cell-based; conditions: 72 h
Source text: as §1, §2, §6

[5] = system: U251 human glioma; assay: MTT cell viability assay, U251; format: cell-based; conditions: 72 h
Source text: as §1, §2, §6

[6] = system: MCF‐7 human breast adenocarcinoma; assay: MTT cell viability assay, MCF‐7; format: cell-based; conditions: 72 h
Source text: as §1, §2, §6

[7] = system: MCF‐7 human breast adenocarcinoma; assay: Crystal violet (CV) cell viability assay, MCF‐7; format: cell-based; conditions: 72 h
Source text: as §1, §2, §6

[8] = system: A375 human skin melanoma; assay: MTT cell viability assay, A375; format: cell-based; conditions: 72 h
Source text: as §1, §2, §6

[9] = system: LN229 human glioblastoma; assay: MTT cell viability assay, LN229; format: cell-based; conditions: 72 h
Source text: as §1, §2, §6

[10] = system: B16 mouse melanoma; assay: MTT cell viability assay, B16; format: cell-based; conditions: 72 h
Source text: as §1, §2, §6

[11] = system: U251 and LN229 cell lines; assay: Cell viability assays (MTT, CV), summary for glioma and glioblastoma lines; format: cell-based, human; conditions: concentration range tested up to 100 μM, 72 h
Source text: as §1
(§7) Preparation of drug solutions. […] Stock solution of cisplatin was prepared in DMF (10 mM) immediately before use. A stock solution of BSA in PBS was prepared at 1.28 mM concentration, and stored at 4 °C in the dark. […] Alternatively, 3 or 4 (DMSO stock solution) were added to the BSA solution in PBS, always with a 10 : 1 molar ratio of BSA to ruthenacarborane. […]
(§8) Colorimetric assays for cellular viability. […] The absorbance was measured with an automated microplate reader at λmax 540 nm, with the reference λmax 670 nm. Untreated cells or cells treated only with BSA (control) were also measured, as reference for BSA‐free and BSA‐containing drug formulations, respectively. […] Cell viability is expressed as percentage (%) relative to control (untreated cultures).58 Experiments were run in three independent replicates. […]

[12] = system: murine microglial cell line BV‐2; assay: Crystal violet (CV) cell viability assay, BV‐2; format: cell-based, mouse; conditions: 72 h
Source text: as §1, §7, §8

[13] = system: Human fibroblast cell line MRC‐5; assay: Crystal violet (CV) cell viability assay, MRC‐5; format: cell-based; conditions: 72 h
Source text: as §1, §7, §8

[14] = system: Human fibroblast cell line MRC‐5; assay: MTT cell viability assay, MRC‐5; format: cell-based; conditions: 72 h
Source text: as §1, §7, §8

[15] = system: primary non‐malignant mouse macrophages (Mph); assay: Crystal violet (CV) cell viability assay, peritoneal macrophages (Mph); format: cell-based; conditions: 72 h
Source text: as §1, §7, §8

[16] = system: murine microglial cell line BV‐2; assay: MTT cell viability assay, BV‐2; format: cell-based, mouse; conditions: 72 h
Source text: as §1, §7, §8

Row | Compound | IC50 ([1]; Homo sapiens, LN-229, 72 h) [µM] | IC50 ([2]; Homo sapiens, U-251, 72 h) [µM] | IC50 [3] [µM] | IC50 [4] [µM] | IC50 [5] [µM] | IC50 ([1]; CV assay, 72 h) [µM] | IC50 [6] [µM] | IC50 [7] [µM] | IC50 [8] [µM] | IC50 ([2]; CV assay, 72 h) [µM] | IC50 [9] [µM] | IC50 [10] [µM] | activity against LN229 and U251 (in words) [11] | IC50 [12] [µM] | IC50 [13] [µM] | IC50 [14] [µM] | IC50 [15] [µM] | IC50 [16] [µM]
1 | CCN(CC)CCCC(C)Nc1ccnc2cc(Cl)ccc12 (stereo not shown) [CQ, chloroquine, reference compound] | 30 to 50 | 30 to 50 |  |  |  |  |  |  |  |  |  |  |  |  |  |  |  | 
2 | N.N.[Cl][Pt][Cl] [Cisplatin, reference compound] |  |  | 3.7 ± 0.1 | 10.9 ± 1.2 | 0.4 ± 0.1 | 4.1 ± 0.6 | 3 ± 0.5 | 3.5 ± 0.2 | 3.3 ± 0.4 | 0.8 ± 0.3 | 4.1 ± 0.4 | 6 ± 0.4 |  |  |  |  |  | 
3 | closo ‐[3‐(η^6‐p‐Cymene)‐1‐[(7‐chloroquinolin‐4‐yl)oxy]butyl acetate)‐3,1,2‐RuC2B9H10] [Compound 5] |  |  | > 100 | 33.7 ± 2.9 | > 100 | 82.5 ± 7.6 | 15.5 ± 1.5 | 34.1 ± 0.5 | 43.4 ± 0.3 | > 100 | 86.7 ± 3 | 9.5 ± 1.8 | inactive | > 100 | > 100 | > 100 | > 100 | 12.3 ± 0.1
